Laboratory results: the supplement of paper PMC8967900

Key:
Experiment in all cases: selective drug sensitivity score (sDSS, relative to normal bone marrow) (sDSS (score)); higher = more potent and effective on the cell line relative to normal bone marrow cells
Conditions in all cases: 72 h
380 = tested on: 380
P30-OHKUBO = tested on: P30-OHKUBO
COG-LL-402h = tested on: COG-LL-402h
REH = tested on: REH
MOLT-14 = tested on: MOLT-14
HPB-ALL = tested on: HPB-ALL
MN-60 = tested on: MN-60
COG-LL-317 = tested on: COG-LL-317
ALL-SIL = tested on: ALL-SIL
JURKAT = tested on: JURKAT
PF-382 = tested on: PF-382
MHH-CALL-2 = tested on: MHH-CALL-2
HAL-01 = tested on: HAL-01
COG-LL-394h = tested on: COG-LL-394h
P12-ICHIKAWA = tested on: P12-ICHIKAWA
KARPAS-45 = tested on: KARPAS-45
COG-LL-332h = tested on: COG-LL-332h
MHH-CALL-3 = tested on: MHH-CALL-3
RPMI-8402 = tested on: RPMI-8402
NALM-16 = tested on: NALM-16
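Also: ALL cell lines in 384-well plates, five doses spanning 10,000-fold, each plate scaled between vehicle and 100 µmol/L benzalkonium chloride controls, sDSS an adapted area-under-curve metric.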

Row | Structure (SMILES) | selective drug sensitivity score 380 | selective drug sensitivity score (P30-OHKUBO) | selective drug sensitivity score (COG-LL-402h) | selective drug sensitivity score (REH) | selective drug sensitivity score (MOLT-14) | selective drug sensitivity score (HPB-ALL) | selective drug sensitivity score (MN-60) | selective drug sensitivity score (COG-LL-317) | selective drug sensitivity score (ALL-SIL) | selective drug sensitivity score (JURKAT) | selective drug sensitivity score (PF-382) | selective drug sensitivity score (MHH-CALL-2) | selective drug sensitivity score (HAL-01) | selective drug sensitivity score (COG-LL-394h) | selective drug sensitivity score (P12-ICHIKAWA) | selective drug sensitivity score (KARPAS-45) | selective drug sensitivity score (COG-LL-332h) | selective drug sensitivity score (MHH-CALL-3) | selective drug sensitivity score (RPMI-8402) | selective drug sensitivity score (NALM-16)
1 | C=C1C[C@@H]2CC[C@@]34C[C@H]5O[C@H]6[C@@H](O3)[C@H]3O[C@H](CC[C@@H]3O[C@H]6[C@H]5O4)CC(=O)C[C@@H]3[C@@H](OC)[C@@H](C[C@H](O)CN)O[C@H]3C[C@H]3O[C@@H](CC[C@@H]1O2)C[C@@H](C)C3=C [Eribulin] (top concentration 1000 nM) | 24.2 | 19.6 | 17.3 | 18.9 | 25.2 | 13.2 | 3.8 | 26.3 | 23.2 | 26.9 | 15.1 | 15.8 | 4.6 | 6.7 | 16.7 | 21.7 | 20.6 | 13.1 | 22.1 | 17.1
2 | COc1cc2c(cc1OCCCN1CCCC1)N=C(N)C21CCC1 [A-366] (top concentration 25000 nM) | -1.84 | 2.56 | -1.84 | 0.36 | 3.16 | -1.84 | -1.84 | 3.06 | -0.34 | -1.04 | -0.84 | -1.14 | -1.84 | 2.06 | -0.84 | 5.16 | 4.86 | -1.84 | 4.06 | -1.84
3 | Cc1c(F)cc(C(=O)NC2CC2)cc1-c1ccc(C(=O)NCC(C)(C)C)cn1 [Losmapimod] (top concentration 10000 nM) | -0.18 | 7.82 | 0.42 | -0.18 | -0.18 | 2.32 | -0.18 | -0.18 | -0.18 | -0.18 | 0.02 | -0.18 | -0.08 | -0.18 | -0.18 | -0.18 | -0.18 | -0.18 | -0.18 | -0.18
4 | COc1cc(N2CCC(N3CCN(C)CC3)CC2)ccc1Nc1ncnc(Nc2ccccc2S(=O)(=O)C(C)C)n1 [ASP3026] (top concentration 10000 nM) | -2.74 | -1.04 | 1.76 | 3.26 | 1.36 | 1.26 | 0.66 | -1.44 | 0.16 | -1.54 | -0.04 | -0.84 | 1.76 | 2.36 | -1.44 | 0.56 | -0.04 | -4.04 | 0.56 | -2.64
5 | CCC(C)(C)C(=O)O[C@H]1C[C@@H](C)C=C2C=C[C@H](C)[C@H](CC[C@@H]3C[C@@H](O)CC(=O)O3)[C@H]21 [Simvastatin] (top concentration 10000 nM) | 4.88 | 1.28 | 0.08 | 0.88 | -0.22 | 0.38 | -0.72 | 6.68 | 2.38 | -0.52 | 0.08 | 9.58 | 3.08 | -0.72 | 2.18 | 2.58 | 0.68 | 6.08 | 2.08 | -0.72
6 | NC(=S)N/N=C/c1ncccc1N [Triapine] (top concentration 10000 nM) | 5.88 | 2.88 | 9.28 | 3.88 | 2.08 | 1.58 | 1.48 | 0.88 | 6.78 | 2.28 | 1.28 | 3.48 | 2.18 | 0.88 | 5.18 | -0.12 | 2.78 | 2.08 | 2.38 | 2.68
7 | N#Cc1ccnc(N2C(=O)CC[C@H]2C(=O)N(c2cncc(F)c2)[C@H](C(=O)NC2CC(F)(F)C2)c2ccccc2Cl)c1 [Ivosidenib] (top concentration 10000 nM) | 3 | 1.1 | 0 | 0.6 | 0.1 | 0 | 0 | 1.8 | 2 | 0.7 | 0.8 | 11.9 | 3.2 | 0 | 1 | 0.5 | 1 | 0 | 0.8 | 0
8 | COc1cc2c(N3CCN(C(=O)Nc4ccc(OC(C)C)cc4)CC3)ncnc2cc1OCCCN1CCCCC1 [Tandutinib] (top concentration 1000 nM) | 0 | 0 | 0 | 0 | 0 | 0 | 0 | 0.7 | 0 | 0 | 0 | 0 | 0 | 0.3 | 0 | 0 | 0 | 0 | 0 | 0.8
9 | CNC(=O)c1ccc(-c2cnc3ncc(Cc4ccc5ncccc5c4)n3n2)cc1F [Capmatinib] (top concentration 1000 nM) | 2.04 | -0.06 | 0.74 | -0.06 | -0.06 | -0.06 | -0.06 | 0.34 | -0.06 | -0.06 | -0.06 | -0.06 | 2.34 | -0.06 | -0.06 | -0.06 | -0.06 | -0.06 | -0.06 | -0.06
10 | CC(C)Cn1cnc2c(N)nc3ccccc3c21 [Imiquimod] (top concentration 2500 nM) | 9 | 0 | 0 | 5.1 | 0 | 2.6 | 0 | 0 | 0 | 0 | 0 | 1.7 | 2.6 | 0.8 | 0 | 0 | 0 | 0 | 0 | 0
11 | C[C@]12CC[C@@H]3c4ccc(O)cc4C[C@@H](CCCCCCCCC[S+]([O-])CCCC(F)(F)C(F)(F)F)[C@H]3[C@@H]1CC[C@@H]2O (stereo not given in full) [Fulvestrant] (top concentration 1000 nM) | 0 | 0 | 0 | 0.2 | 0 | 0.2 | 0 | 0 | 5.3 | 0 | 0 | 1.5 | 0 | 0 | 0 | 0 | 0 | 0 | 0 | 0
12 | CC#CC(=O)N1CCC[C@H]1c1nc(-c2ccc(C(=O)Nc3ccccn3)cc2)c2c(N)nccn12 [Acalabrutinib] (top concentration 1000 nM) | 9.6 | 1.3 | -0.1 | -0.1 | -0.1 | -0.1 | -0.1 | -0.1 | -0.1 | 0 | 0 | 9 | 7.2 | -0.1 | -0.1 | 0.7 | -0.1 | 0 | -0.1 | -0.1
13 | O=c1[nH]cc(F)c(=O)[nH]1 [Fluorouracil] (top concentration 10000 nM) | 1.86 | 3.16 | 3.36 | 1.76 | 5.76 | -0.24 | -0.64 | 8.26 | -0.64 | 0.16 | -0.64 | -0.04 | -0.44 | -0.34 | 0.46 | 0.46 | 4.26 | -0.24 | 2.66 | -0.24
14 | CC(C)(O)CC(=O)NCCn1ccc2ncnc(Nc3ccc(Oc4cccc(C(F)(F)F)c4)c(Cl)c3)c21 [TAK-285] (top concentration 2500 nM) | 0 | 0 | 0 | 0.1 | 0 | 0 | 0 | 0 | 0 | 0 | 0 | 1.6 | 3.1 | 0 | 0 | 0 | 0 | 0 | 0 | 0
15 | CC[C@]12C=CCN3CC[C@@]4(c5cc([C@@]6(C(=O)OC)C[C@@H]7C[C@@H](C(C)(F)F)CN(Cc8c6[nH]c6ccccc86)C7)c(OC)cc5N(C)[C@H]4[C@@](O)(C(=O)OC)[C@@H]1OC(C)=O)[C@@H]32 [Vinflunine] (top concentration 1000 nM) | 5.98 | 3.68 | 2.78 | 4.18 | 3.78 | 6.18 | 0.58 | 3.88 | 10.3 | 4.48 | 2.68 | 2.88 | 1.38 | 2.38 | 3.98 | 4.48 | 3.78 | -0.12 | 4.78 | 4.08
16 | Cn1cc(C[C@@H](N)C(=O)O)c2ccccc21 [1-methyl-D-tryptophan] (top concentration 5000 nM) | -0.02 | 0.58 | -0.62 | 3.68 | -0.62 | -0.62 | -0.62 | -0.62 | -0.62 | -0.62 | -0.62 | 2.28 | 0.58 | -0.62 | -0.62 | -0.62 | -0.62 | 1.48 | -0.62 | -0.62
17 | Cc1cc(-c2ncc(CC(=O)Nc3ccc(-c4cnccn4)cn3)cc2C)ccn1 [NVP-LGK974] (top concentration 10000 nM) | 1 | 2.1 | -0.1 | 4 | 1 | -0.6 | 4.7 | -1.2 | 0 | 7.3 | 2.7 | 1.9 | -0.8 | 6.2 | 3.2 | 4.6 | 0.5 | 2 | 4.9 | 0.7
18 | N#CC(c1ccnc(OCc2ccc(CN3CCOCC3)cc2)n1)c1nc2ccccc2s1 (stereo not given) [Bentamapimod] (top concentration 10000 nM) | -0.46 | 5.34 | 1.54 | 6.54 | 2.74 | 3.34 | 2.44 | 3.34 | 2.34 | 3.94 | 3.84 | 4.94 | 2.74 | 3.44 | 2.94 | 5.54 | 2.94 | -0.46 | 4.94 | -0.46
